The subject of this data set is NLuc-UGA PTC. The data set is described as follows: NanoLuc nonsense reporter screen (all-in-one HTC plasmid), TGA/UGA PTC, HEK293 cells. Type of data set: cell-based, human. To be noted: for stop codon selectivity (NanoLuc TGA, TAA or TAG reporter): transiently transfected HEK293 cells. The text has this: Several different nonsense mutations cause CF, thus underlying roughly 10% of all CF disease. FIG. 7. These cases are concentrated into […] specific genetic lesions: E60X, R75X, G542X, R553X, Q890X, Y1092X, R1158X, R1162X and W1282X. A screen was developed to screen existing human tRNA sequences for modification and tolerance to anti-codon editing. To this end, roughly 144 ACE-tRNAs were candidates to test for those that could be used to promote the repair of the disease causative nonsense codon and the expression of the full-length protein. Specifically, using the scheme described in FIG. 11, tRNA libraries were generated to identify novel tRNA sequences that encode for ACE tRNA with the ability to repair the top CF causative nonsense mutations. Specifically, 10 ng of annealed oligos encoding the ACE-tRNAs were combined with 50 ng of NanoLuc reporter plasmid, 1 μl 10×CutSmart Buffer (NEB), 1 μl T4 ligase (NEB), 10 mM ATP and 1 μl BbsI (NEB) and cycled in a thermocycler as described in FIG. 11. 1 μl of the reaction was transformed into competent E. coli and the transformants were plated on ampicillin agar plates. One transformant was picked per plate was picked, grown in 1 ml of LB under ampicillin selection, miniprepped and sequence verified.
Screening studies were first performed to identify the best ACE-tRNA Candidates from tryptophan and glycine. 125 ng of sequence verified miniprep cDNA of NanoLuc reporter plasmid with ACE-tRNA was transfected into HEK cells using calcium phosphate. HEK cells were plated in 96 well plates at 4×10^4 the day prior. 24 hours after transfection the media was replaced with 20 μl of PBS and 15 μl of NanoGlo reagent (Promega) was added. Plates were read on a SpectraMax i3 (Molecular Devices). Data are of replicates of 3 or greater. FIG. 8.
FIG. 10. An additional modification of the tRNA was made to further enable their function for the purpose of suppression of nonsense codons and the promotion of protein expression. […] To this end, single and double mutations were directly engineered into the t-stem loop of tRNA Trpchr17.trna39—an ACE-tRNA identified with activity for the rescue of tryptophan TGA nonsense codons. Thirty-eight tRNA t-stem variants were thus generated and screened in HEK cells transiently transfected with the nonsense rescue reporter construct shown in FIG. 4. […] This is a generalizable modification, that is, new tRNA sequences identified, by example 1 and 2, can be made better (for their ability to rescue nonsense codons) through further rationale modifications. Such approaches aid in the therapeutic utility of ACE-tRNA directed to tissue types with low abundance target RNA or where tRNA delivery may be limiting.
In order to enable the identification of the nucleotide composition and functional ability to suppress nonsense codons by new types of tRNA, an All-In-One Plasmid With A One Pot Cloning Reaction was invented for High Throughput Cloning FIG. 11. This approach enables the facile investigation of ACE-tRNA activity via luciferase activity in a standard 96 well format. Briefly, synthetic nucleotide sequences encoding for tRNA are ligated into the NanoLuc Reporter plasmid, with an example of the TGA nonsense reporter plasmid variant shown in FIG. 11. […] and TAG (amber) stop codon rescue vectors have been successfully designed and implemented in FIGS. 16-19. The benefits are the approach is that DNA oligos encoding for tRNA libraries can be ligated in the NanoLuc reporter plasmid with the presence of the restriction enzyme and ligase with the reaction pushed to nearly 100% incorporation of tRNA insert (FIG. 11)-thus the ‘one-pot’ designation. The reaction is transformed into E. coli, with the resultant cDNA purified by standard methods. […]

For the molecule “Trpchr17.trna39: top performing tryptophan ACE-tRNA UGA suppressor, SEQ ID NO: 48”, under “Table 7, Trp TGA”, the Ranking entry is listed as “#1”. Further, where the note is “listed as ACE-tRNA^Trp”, the “stop codon selectivity (NanoLuc TGA, TAA or TAG reporter)” value is listed as “Stop codon specificity is maintained”.

B1: Glychr19.trna2: top performing glycine ACE-tRNA UGA suppressor, SEQ ID NO: 53 (nucleic acid)
chain: GCGTTGGTGGTATAGTGGTTAGCATAGCTGCCTTCAAAGCAGTTGACCCGGGTTCGATTCCCGGCCAACGCA
modifications: chemistry not fully specified
For B1, where the note is “Table 8, Gly TGA”, the Ranking entry is “#1”. For the setting “listed as Glychr19.t2”, the “stop codon selectivity (NanoLuc TGA, TAA or TAG reporter)” value was “selectively suppresses the UGA stop codon”.

Values taken from US20230203482A1, “Methods of Rescuing Stop Codons via Genetic Reassignment with ACE-tRNA” (THE WISTAR INSTITUTE OF ANATOMY AND BIOLOGY, priority 2017, published 2023).
